Results on nine compounds are retold here after PubChem BioAssay (NCI).

Values joined by “and” are separate entries in the source; they are usually repeats but may differ in a detail not shown here. Equal entries are not always repeated.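 Each compound was tested at five concentrations against cells in 96-well plates for 48 hours. Abbreviation: GI50, concentration required for 50% inhibition of growth. TGI: total growth inhibition.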 Where only a bound is given, the exact number is not on record here.

Some test systems named below: 786-0 renal; EKVX NSCLC; HCT-116 colon; HL-60(TB) leukemia; HT29 colon; NCI-H23 lung; OVCAR-3 ovarian; OVCAR-4 ovarian; OVCAR-8 ovarian; RPMI-8226 leukemia; SF-268 CNS; SNB-19 CNS; U251 CNS; UACC-62 melanoma; MCF7 breast; BT-549 breast.
Common to all, as to assay: inhibition of tumour cell growth, NCI panel, 48 h

On to `CC1(C)O[C@@H](C[C@]2(C#N)C[C@H](CCl)OC(C)(C)O2)C[C@@H](C#N)O1`, for which the TGI with 786-0 renal, with EKVX NSCLC, in the experiment on HCT-116 colon, with HL-60(TB) leukemia, in the experiment on HT29 colon and in the experiment on NCI-H23 lung was over 100 µM each time. The TGI with OVCAR-3 ovarian, with OVCAR-4 ovarian, in the experiment on OVCAR-8 ovarian, with RPMI-8226 leukemia, in the experiment on SF-268 CNS and with SNB-19 CNS was over 100 µM each time. For the same compound, the TGI in the experiment on U251 CNS and with UACC-62 melanoma was over 100 µM each time.

Consider `N#Cc1c(N)nc2c3c1NC(=O)C(C(N)=O)C3c1ccccc1O2` (centres undefined), for which the TGI with 786-0 renal, in the experiment on EKVX NSCLC, with HCT-116 colon, with HL-60(TB) leukemia, in the experiment on HT29 colon and in the experiment on MCF7 breast was over 100 µM throughout. The TGI with NCI-H23 lung, with OVCAR-3 ovarian, in the experiment on OVCAR-4 ovarian, in the experiment on OVCAR-8 ovarian, with RPMI-8226 leukemia and with SF-268 CNS was over 100 µM in each case. Further, the TGI in the experiment with SNB-19 CNS, in the experiment with U251 CNS and in the experiment with UACC-62 melanoma was over 100 µM throughout.

For the compound `C=C1C(C)C2C(Cc3ccccc3)NC(=O)C23OC(=O)/C=C\CC(=O)CCC(C)C/C=C/C3C1O` (centres undefined), the TGI stood at 10.1 µM with EKVX NSCLC; 7.35 µM in the experiment with HCT-116 colon; 11.1 µM in the experiment on HT29 colon; 5.1 µM in the experiment on MCF7 breast; 12.5 µM with NCI-H23 lung; 7.9 µM with OVCAR-3 ovarian. Moreover, the TGI came out at 7.39 µM in the experiment with OVCAR-4 ovarian; 16.7 µM with OVCAR-8 ovarian; 5.21 µM in the experiment on RPMI-8226 leukemia; 7.48 µM with SF-268 CNS; 12.9 µM in the experiment on SNB-19 CNS; 10.7 µM in the experiment on U251 CNS. The compound further had a TGI in the experiment with UACC-62 melanoma of 11.2 µM. Also, the GI50 with HL-60(TB) leukemia is 0.158 µM and 0.755 µM; in the experiment on MCF7 breast, 0.695 µM and 1.39 µM; with OVCAR-3 ovarian, 0.384 µM; in the experiment on RPMI-8226 leukemia, 0.932 µM.

In the case of `Nc1c(S(=O)(=O)O)cc(S(=O)(=O)O)c2ccc(N=Nc3ccc(/C=C/c4ccc(N=Nc5ccc6c(S(=O)(=O)O)cc(S(=O)(=O)O)c(N)c6c5O)cc4S(=O)(=O)O)c(S(=O)(=O)O)c3)c(O)c12`, the TGI with EKVX NSCLC, in the experiment with HCT-116 colon, in the experiment on HL-60(TB) leukemia, in the experiment with HT29 colon, in the experiment on MCF7 breast and with NCI-H23 lung was over 100 µM throughout. Also, the TGI in the experiment with OVCAR-3 ovarian, in the experiment with OVCAR-4 ovarian, in the experiment with OVCAR-8 ovarian, in the experiment with RPMI-8226 leukemia, in the experiment on SF-268 CNS and in the experiment with SNB-19 CNS was over 100 µM throughout. The TGI with U251 CNS and in the experiment on UACC-62 melanoma was over 100 µM in each case.

Turning to `COc1cc(N(CCC#N)CCC#N)ccc1/C=N\NC(=O)c1ccc(C)cc1`, the TGI in the experiment with 786-0 renal, with BT-549 breast, in the experiment on EKVX NSCLC, with HCT-116 colon, in the experiment with HL-60(TB) leukemia and in the experiment on HT29 colon was over 100 µM each time. The TGI in the experiment on NCI-H23 lung, in the experiment on OVCAR-3 ovarian, with OVCAR-4 ovarian, in the experiment on OVCAR-8 ovarian, in the experiment on SF-268 CNS and with SNB-19 CNS was over 100 µM throughout. The TGI is 30.8 µM with U251 CNS and over 100 µM with UACC-62 melanoma.

As to `O=C1NC(Cc2ccc(O)cc2)C(=O)NC1Cc1ccc(O)cc1` (centres undefined), the TGI in the experiment with 786-0 renal, with EKVX NSCLC, with HCT-116 colon, with HL-60(TB) leukemia, with HT29 colon and in the experiment on MCF7 breast was over 100 µM throughout. Also, the TGI with NCI-H23 lung, in the experiment with OVCAR-3 ovarian, in the experiment with OVCAR-4 ovarian, in the experiment on OVCAR-8 ovarian, in the experiment on RPMI-8226 leukemia and in the experiment with SF-268 CNS was over 100 µM each time. Besides, the TGI in the experiment with SNB-19 CNS, in the experiment on U251 CNS and with UACC-62 melanoma was over 100 µM in each case.

For `Cc1c2ccncc2c(C)c2c1[nH]c1ccc(OCCN(C)C)cc12`, the TGI in the experiment on EKVX NSCLC was 1.51 µM; with HCT-116 colon, 0.256 µM; with HT29 colon, 1.24 µM; in the experiment with MCF7 breast, 0.785 µM; in the experiment on NCI-H23 lung, 1.22 µM; in the experiment with OVCAR-3 ovarian, 1.07 µM. The TGI came out at 0.368 µM in the experiment with OVCAR-4 ovarian; 0.543 µM in the experiment on OVCAR-8 ovarian; 0.135 µM in the experiment on RPMI-8226 leukemia; 0.919 µM in the experiment with SF-268 CNS; 0.958 µM in the experiment on SNB-19 CNS; 0.946 µM with U251 CNS. The compound also registered a TGI in the experiment on UACC-62 melanoma of 2.35 µM.

In the case of `CCCCN(C)/N=N/c1nc[nH]c1C(N)=O`, the TGI in the experiment with EKVX NSCLC, in the experiment with HCT-116 colon, with HL-60(TB) leukemia, in the experiment on HT29 colon, in the experiment with MCF7 breast and in the experiment with NCI-H23 lung was over 100 µM each time. Also, the TGI with OVCAR-3 ovarian, with OVCAR-4 ovarian, in the experiment on OVCAR-8 ovarian, in the experiment with RPMI-8226 leukemia, in the experiment on SF-268 CNS and in the experiment with SNB-19 CNS was over 100 µM throughout. Besides, the TGI with U251 CNS and in the experiment with UACC-62 melanoma was over 100 µM in each case.

Turning to `CC(C)(C)C1=C(Br)C(O)(C(C)(C)C)OP1(=O)c1ccccc1` (centres undefined), the TGI with 786-0 renal is over 100 µM; with EKVX NSCLC it was over 100 µM; in the experiment on HL-60(TB) leukemia, over 100 µM; with HT29 colon, over 100 µM; in the experiment with MCF7 breast, 43.1 µM; with NCI-H23 lung it was over 100 µM. The TGI in the experiment with OVCAR-3 ovarian, with OVCAR-4 ovarian, in the experiment on OVCAR-8 ovarian, with SF-268 CNS, in the experiment on SNB-19 CNS and in the experiment with U251 CNS was over 100 µM in each case. In addition, the TGI in the experiment with UACC-62 melanoma was over 100 µM.
